# T1: spastin (Mus musculus, UniProt Q9QYY8, K308Q/K309Q/K310Q)
# T1 construct: expressed in transfected cells; host or cells: HeLa (CCL-2)
# T1 sequence (Q9QYY8 with tags, fused parts or gaps K308Q/K309Q/K310Q): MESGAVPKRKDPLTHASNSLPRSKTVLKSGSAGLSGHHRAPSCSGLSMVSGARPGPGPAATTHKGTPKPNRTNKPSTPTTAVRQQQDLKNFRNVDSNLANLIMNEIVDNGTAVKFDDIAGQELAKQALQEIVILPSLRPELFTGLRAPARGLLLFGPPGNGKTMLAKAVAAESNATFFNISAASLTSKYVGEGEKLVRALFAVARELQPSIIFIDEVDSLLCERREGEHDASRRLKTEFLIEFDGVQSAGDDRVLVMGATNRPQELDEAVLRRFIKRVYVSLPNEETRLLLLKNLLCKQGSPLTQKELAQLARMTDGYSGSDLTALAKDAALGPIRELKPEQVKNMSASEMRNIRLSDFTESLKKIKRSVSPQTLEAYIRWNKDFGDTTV
# B1: TagRFP—FRB—A1AY1: A1AY1 (SEQ ID NO:16), targets tyrosinated MTs, tagged with FRB and red fluorescent protein TagRFP (protein)
# chain: MVSKGEELIKENMHMKLYMEGTVNNHHFKCTSEGEGKPYEGTQTMRIKVVEGGPLPFAFDILATSFMYGSRTFINHTQGIPDFFKQSFPEGFTWERVTTYEDGGVLTATQDTSLQDGCLIYNVKIRGVNFPSNGPVMQKKTLGWEANTEMLYPADGGLEGRTDMALKLVGGGHLICNFKTTYRSKKPAKNLKMPSVYYVDHRLERIKEADKETYVEQHEVAVARYCDLPSKLGHKLNLYKILWHEMWHEGLEEASRLYFGERNVKGMFEVLEPLHAMMERGPQTLKETSFNQAYGRDLMEAQEWCRKYMKSGNVKDLLQAWDLYYHVFRRISKMATVKFKYKGEEKQVDISKILSVGRYGKLIHFLYDLGGGKAGMGMVSEKDAPKELLQMLEKQKK
# Tests used:
# spastin = molecular target: T1, spastin; experiment: Reversal of MT disruption by spastin inhibition and MT regrowth in HeLa cells; assay type: cell-based; settings: spastazoline 10 µM added after 28 min rapamycin; dNSpastin3Q-YFP-FKBP and EMTB-CFP-FRB HeLa cells
# Method: FIGS. 2S to 2U show inhibition of spastin activity reverses MT disruption. In FIG. 2S, HeLa cells co-transfected with EMTB—CFP—FRB (black) and dNSpastin3Q-YFP-FKBP (green) were pre-treated with rapamycin for 28 min to induce acute MT disassembly; spastazoline (10 µM), a spastin inhibitor, was then added to the cultures to halt the MT disruption system; arrows indicate the centrosome-derived MTs; scale bar, 10 µm. […] Data (red) are shown as the mean ± SD. A Student’s t-test was performed to generate the indicated p-value.
# Intriguingly, nascent MTs from the fragments derived from dNspastin3Q-mediated cleavage assembled at a polymerization rate of 0.92 ± 0.04 µm/sec, which was slightly slower than the regrowth rate of 1.17 ± 0.07 µm/sec for MTs from centrosomes (see FIG. 2U). […] In particular, microtubule filaments are composed of microtubule molecules. If they are only disassembled into microtubule molecules and the raw materials are still there, they would have the opportunity to quickly assemble them back. But if the microtubule molecules are degraded and the raw materials are gone, they can’t be quickly reassembled. In summary, rapid recruitment of dNSpastin3Q-YFP-FKBP onto MTs efficiently triggered MT disassembly in living cells upon dimerization induction.
# [1] = molecular target: TagRFP-FRB-A1AY1 (Artificial Sequence); experiment: live-cell imaging, addition of rapamycin
# [2] = tested on: tyrosinated MTs in COS7 cells; experiment: Targeting of TagRFP-FRB-A1AY1 and rapamycin-induced recruitment onto A1AY1-bound MTs; assay type: cell-based, African green monkey
# Method: (§1) The procedures of immunofluorescence staining are as follows. Cells cultured in borosilicate glass Lab-Tek eight-well chambers (Nunc) were fixed in 4% paraformaldehyde (Electron Microscopy Sciences) at room temperature for 15 min. Fixed cells were permeabilized with 0.1% Triton X-100 and then incubated in blocking solution (phosphate-buffered saline with 2% bovine serum albumin) for 30 min at room temperature. To label cytosolic MTs, primary ciliary membrane, and axonemal MTs, cells were incubated for 1 hr at room temperature with mouse antibody against α-tubulin (1:500; Sigma Aldrich, T6199), rabbit antibody against Arl13b (1:500; Proteintech, 17711-1-AP), mouse antibody against glutamylated tubulin (1:100; Adipogen, AG-20B-0020-C100), mouse antibody against acetylated tubulin (1:500; Sigma Aldrich, T7451), rat antibody against tyrosinated tubulin (1:100; Sigma Aldrich, MAB1864), and mouse antibody against detyrosinated tubulin (1:100; MERCK, AB3201) each of which was diluted in blocking solution. Cells were then washed with PBS and incubated for 1 hr with appropriate secondary antibodies (1:1000 dilution; Thermo Fisher) at room temperature.
# MTs undergo various post-translational modification (PTMs) for spatiotemporally regulating their properties and functions. The inventors next turned efforts to precisely disrupt MTs with specific PTMs. […]
# [3] = tested on: EMTB-CFP-FRB-labeled MTs in HeLa cells; experiment: Rapamycin-induced translocation of FKBP-tagged proteins onto EMTB-CFP-FRB-labeled MTs (FRET, live-cell imaging); assay type: cell-based; settings: 100 nM rapamycin, FRET signal
# Method: (§2) The procedures of live-cell imaging are as follows. Live transfected cells cultured on poly(d-lysine)-coated glass coverslips (Hecht Assistent) were treated with either 100 nM rapamycin for rapid induction of protein dimerization and translocation or MT-targeting agents (10 µM nocodazole or 500 µM colchicine) during imaging. Live-cell imaging was conducted on a Nikon T1 inverted fluorescence microscope (Nikon) with a 60× oil objective (Nikon), a Prime camera (Photometrics), and 37° C., 5% CO2 heat stage (Live Cell Instrument). Rapid recruitment of proteins of interest (POIs) was imaged at 5- or 10-sec intervals, whereas the process of MT disruption was imaged at 1-min intervals. Images were obtained using Nikon NIS-Elements AR software and processed with Huygens Deconvolution Software (Scientific Volume Imaging). Image analysis was mainly performed with Nikon NIS-Elements AR software.
# FIGS. 1B and 1C show the MT-binding domain of ensconsin-cyan fluorescent protein-FKBP-rapamycin binding domain (EMTB—CFP—FRB) localizes to cytosolic MTs. […] Scale bar, 10 µm. […] Subsequently, the addition of rapamycin to HeLa cells led to the rapid translocation of yellow fluorescent protein-tagged FKBP (YFP—FKBP) onto EMTB—CFP—FRB-labeled MTs as evidenced by an increased FRET (fluorescence resonance energy transfer) signal on MTs (T½ of translocation: 5.73 ± 0.54 sec; FIGS. 1D and 1E). […]
# [4] = tested on: intracellular microtubules in HeLa cells; experiment: Live-cell imaging of MT disruption (MT filament area) in transfected HeLa cells; assay type: cell-based; settings: HeLa cells co-transfected with EMTB-CFP-FRB, upon rapamycin (100 nM) treatment
# Method: as §2
# The procedures of measurement of MT filament area are as follows. The MT filaments in living cells were labeled with EMTB-CFP-FRB and imaged in real time (RAW image). The rolling ball correction was used to remove the cytosol background from the RAW images, which was carried out with the Nikon NIS-Elements AR software. Images were processed to generate the binary MT filament pattern via the Otsu threshold and analyzed by Fiji software.
# FIGS. 2D and 2E show rapidly recruiting engineered spastins onto MTs. […] The top three layers are cells that simultaneously express EMTB-CFP-FRB and dNSpastin3Q-YFP-FKBP. The lower three layers are cells that simultaneously express EMTB-CFP-FRB and dNSpastin-YFP-FKBP-C2Lact. The color bar on the right indicates the brightness value represented by the color of the FRET signal. […] Data are shown as the mean ± S.E.M. It was noteworthy that MT disruption triggered by dNSpastin3Q-YFP-FKBP upon rapamycin treatment (T½ = 11.05 ± 1.52 min) was much faster than that of dNSpastin-YFP-FKBP-C2Lact upon rapamycin treatment (T½ = 53.08 ± 8.08 min), and treatment of two common MTAs, nocodazole (10 µM; T½ = 54.02 ± 10.29 min), colchicine (500 µM; T½ = 94.28 ± 8.63 min; see FIGS. 2F to 2J). […] In FIG. 2H, HeLa cells transfected with the indicated constructs were treated with nocodazole (Noc)([…], a type of MTA), colchicine (Col)(500 µM, a type of MTA), or rapamycin (Rapa)(100 nM); scale bar, 10 µm. […] Data are shown as the mean ± S.E.M. Student’s t-tests were performed, with the resulting p-values indicated.
# [5] = tested on: cytosolic MTs in HeLa cells; experiment: Immunofluorescence staining of α-tubulin in HeLa cells expressing spastin constructs; assay type: cell-based; settings: HeLa cells co-transfected with EMTB-CFP-FRB
# Method: as §1
# Spastin is a MT-cleaving enzyme that is ubiquitous in nearly all eukaryotic cells. Expression of full-length spastin (SpastinFL-YFP; the amino acid sequence of spastin is SEQ ID NO: 1) and truncated spastin without the N-terminal 1-140 amino acids (dNSpastin-YFP) in HeLa cells removed significant amounts of cytosolic MTs, 47.45% and 42.86%, respectively, relative to YFP-transfected control cells (See FIGS. 2A to 2C). This means that both full-length spastin and truncated spastin without N-terminal 1-140 amino acids have the effect on disrupting microtubules. FIGS. 2A to 2C show the microtubule cleavage activity of artificially engineered spastin enzyme. […] The dotted line on the right indicates the periphery of the cell that expresses spastin. […] SpastinFL expressed in cells can disrupt the intracellular microtubules. Making SpastinFL be located in the cytosol, truncated spastin would also disrupt the intracellular microtubules, so it would also be located in the cytosol. […] The truncated spastin is used in the subsequent experiments. […] Compared with the YFP control group, both SpastinFL-YFP and dNSpastrin-YFP can disrupt about 40% of the microtubules. Thus the N-terminal fragment (1-140 amino acids) was dispensable for Spastin-mediated MT severing. […]
molecule,measurement,setting,value
"CC(C)[C@@H]1CN(c2nc(Nc3cc(C(C)(C)C)[nH]n3)c3cc[nH]c3n2)CCN1 [spastazoline, reference compound]",effect of spastin inhibitor on rapamycin-mediated MT disruption,spastin,swiftly reversed rapamycin-mediated acute MT disruption
"TagCFP, tagged FKBP (TagCFP-FKBP)",T½ of recruitment,[1],1.08 min
TagCFP—FKBP: cyan fluorescent protein TagCFP-tagged FKBP [reference compound],T½ of recruitment onto TagRFP-FRB-A1AY1-bound MTs,[2]; addition of rapamycin,1.078 ± 0.268 min
YFP—FKBP: yellow fluorescent protein-tagged FK506-binding protein [reference compound],T½ of translocation from cytosol onto EMTB-CFP-FRB-labeled MTs,[3],0.0955 ± 0.009 min
dNSpastin-YFP-FKBP-C2Lact: truncated spastin tagged with YFP-FKBP and plasma membrane-binding sequence C2Lact,T½ of MT disruption,[4],53.08 ± 8.08 min
same,T½ of translocation from cytosol onto EMTB-CFP-FRB-labeled MTs,[3],0.924 ± 0.14 min
same,MT disruption after rapamycin treatment,[5]; 100 nM rapamycin 1 hr,robustly disrupted MTs
same,MT-severing activity before rapamycin treatment,[5]; 0.1% DMSO,low MT-severing activities
B1,targeting of construct to MT subtypes,"[2]; COS7 cells, immunostaining",preferentially targeted to generic MTs and tyrosinated MTs but not to detyrosinated MTs
